# Measurements: patent US7485641B2, “Substituted 3-amino-pyrrolidino-4-lactams” (Pfizer, Inc., priority 2006, dated 2009)
# Where a name gives a salt, the structure may show the parent alone.
# Target: T1, DPP-IV (Homo sapiens, UniProt P27487)
# T1 construct: purchased Enzyme Systems Products SPE-01
# Assay: In vitro assay for dipeptidyl peptidase inhibition
# Format: biochemical
# Settings: at 300 nM; n-value given in brackets
# T1 sequence (P27487 whole entry, species assumed): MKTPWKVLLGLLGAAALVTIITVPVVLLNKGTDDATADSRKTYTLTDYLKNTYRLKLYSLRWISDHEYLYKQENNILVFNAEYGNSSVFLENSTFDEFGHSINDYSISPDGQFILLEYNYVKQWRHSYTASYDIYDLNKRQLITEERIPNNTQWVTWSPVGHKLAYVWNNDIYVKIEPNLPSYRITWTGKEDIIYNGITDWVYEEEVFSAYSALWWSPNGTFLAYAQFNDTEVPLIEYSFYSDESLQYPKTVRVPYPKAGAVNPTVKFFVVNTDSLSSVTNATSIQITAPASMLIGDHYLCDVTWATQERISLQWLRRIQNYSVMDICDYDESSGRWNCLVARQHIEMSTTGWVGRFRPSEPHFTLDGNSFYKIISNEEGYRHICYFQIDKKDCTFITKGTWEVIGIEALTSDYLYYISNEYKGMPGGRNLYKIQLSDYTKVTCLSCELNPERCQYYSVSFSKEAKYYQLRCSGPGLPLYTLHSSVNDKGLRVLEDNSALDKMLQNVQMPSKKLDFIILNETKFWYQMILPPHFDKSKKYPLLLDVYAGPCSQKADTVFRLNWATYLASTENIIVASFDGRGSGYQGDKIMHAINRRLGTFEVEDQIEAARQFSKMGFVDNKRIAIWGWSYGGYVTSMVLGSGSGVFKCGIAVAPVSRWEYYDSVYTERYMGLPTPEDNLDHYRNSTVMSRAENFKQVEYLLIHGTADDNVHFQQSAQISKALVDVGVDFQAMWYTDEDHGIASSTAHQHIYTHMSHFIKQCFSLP
row,Structure (SMILES),DPP-IV Percent Inhibition at 300 nM
1,"CCOc1ncc2c(n1)CCN(c1ncnc(N3C[C@H](N)[C@@H](N4CCCCC4=O)C3)n1)C2.O=C(O)C(F)(F)F [Example 72, 1-((3S,4S)-4-Amino-1-(4-(2-ethoxy-7,8-dihydropyrido[4,3-d]pyrimidin-6(5H)-yl)-1,3,5-triazin-2-yl)pyrrolidin-3-yl)piperidin-2-onetrifluoroacetate]",13.1%(4)
2,"CC(Oc1cc(N2C[C@H](N)[C@@H](N3CCCCC3=O)C2)ncn1)C(F)(F)F.O=C(O)C(F)(F)F (stereo partly drawn) [Example 93, 1-((3S,4S)-4-Amino-1-(6-(1,1,1-trifluoropropan-2-yloxy)pyrimidin-4-yl)pyrrolidin-3-yl)piperidin-2-onetrifluoroacetate]",13.8%(4)

# Same assay, conditions: at 300 nM; n-value given in brackets; read-out: DPP-IV Percent Inhibition at 300 nM
row,Structure (SMILES),inhibition at 0.3 µM [%]
1,"N[C@H]1CN(c2cc(N3CCc4noc(C(F)(F)F)c4C3)ncn2)C[C@@H]1N1CCCCC1=O [Example 81, 1-((3S,4S)-4-amino-1-(6-(3-(trifluoromethyl)-6,7-dihydroisoxazolo[4,3-c]pyridin-5(4H)-yl)pyrimidin-4-yl)pyrrolidin-3-yl)piperidin-2-one trifluoroacetate]",44.5
2,"N[C@H]1CN(c2cc(OCC(F)(F)F)ncn2)C[C@@H]1N1CCCCC1=O [Example 92, 1-((3S,4S)-4-Amino-1-(6-(2,2,2-trifluoroethoxy)pyrimidin-4-yl)pyrrolidin-3-yl)piperidin-2-one trifluoroacetate]",28.9

# Other lines, results leading:
row,inhibition at 0.3 µM [%],Structure (SMILES)
1,17.9,"Cn1nc(C(F)(F)F)c2c1CCN(c1ncnc(N3C[C@H](N)[C@@H](N4CCCCC4=O)C3)n1)C2 [Example 67, 1-((3S,4S)-4-amino-1-(4-(1-methyl-3-(trifluoromethyl)-6,7-dihydro-1H-pyrazolo[4,3-c]pyridin-5(4H)-yl)-1,3,5-triazin-2-yl)pyrrolidin-3-yl)piperidin-2-one]"
2,32.2,"N[C@H]1CN(c2cc(OC3CCCC3)ncn2)C[C@@H]1N1CCCCC1=O [Example 91, 1-((3S,4S)-4-Amino-1-(6-(cyclopentyloxy)pyrimidin-4-yl)pyrrolidin-3-yl)piperidin-2-onetrifluoroacetate]"

# Same assay, conditions: n-value given in brackets; read-out: DPP-IV IC50
row,Structure (SMILES),IC50 [nM]
1,"COc1cc2c(cc1OC)CN(c1cc(N3C[C@H](N)[C@@H](N4CCCC4=O)C3)ncn1)CC2 [Example 60, 1-((3S,4S)-4-Amino-1-(6-(3,4-dihydro-6,7-dimethoxyisoquinolin-2(1H)-yl)pyrimidin-4-yl)pyrrolidin-3-yl)pyrrolidin-2-onehydrochloride]",1260
2,"N[C@H]1CN(c2cc(N3CCc4ccccc4CC3)ncn2)C[C@@H]1N1CCCC1=O [Example 61, 1-((3S,4S)-4-Amino-1-(6-(1,2,4,5-tetrahydrobenzo[d]azepin-3-yl)pyrimidin-4-yl)pyrrolidin-3-yl)pyrrolidin-2-onehydrochloride]",787
3,"N[C@H]1CN(c2cc(N3CCc4sccc4C3)ncn2)C[C@@H]1N1CCCC1=O [Example 65, 1-((3S,4S)-4-Amino-1-(6-(6,7-dihydrothieno[3,2-c]pyridin-5(4H)-yl)pyrimidin-4-yl)pyrrolidin-3-yl)pyrrolidin-2-onehydrochloride]",547
4,"N[C@H]1CN(c2ncnc(N3CCc4sccc4C3)n2)C[C@@H]1N1CCCCC1=O [Example 71, 1-{(3S,4S)-4-Amino-1-[4-(6,7-dihydro-4H-thieno[3,2-c]pyridine-5-yl)-[1,3,5]triazin-2-yl]-pyrrolidin-3-yl}-piperidin-2-onetrifluoroacetate]",139
5,"N[C@H]1CN(c2ncnc(NC3CCCCC3)n2)C[C@@H]1N1CCCCC1=O [Example 75, 1-[(3S,4S)-4-Amino-1-(4-cyclohexylamino-[1,3,5]triazin-2-yl)-pyrrolidin-3-yl]-piperidin-2-onetrifluoroacetate]",169
6,"N[C@H]1CN(c2cc(N3CCc4nocc4C3)nc(C(F)(F)F)n2)C[C@@H]1N1CC(F)(F)CCC1=O [Example 77, 1-{(3S,4S)-4-amino-1-[6-(6,7-dihydro-4H-isoxazolo[4,3-c]pyridin-5-yl)-2-trifluoromethyl-pyrimidin-4-yl]-pyrrolidin-3-yl}-5,5-difluoro-piperidin-2-one]",33.5
7,"N[C@H]1CN(c2cc(-c3ccccc3)ncn2)C[C@@H]1N1CC(F)(F)CCC1=O [Example 82, 1-((3S,4S)-4-amino-1-(6-phenylpyrimidin-4-yl)pyrrolidin-3-yl)-5,5-difluoropiperidin-2-one trifluoroacetate]",28.8
8,"N[C@H]1CN(c2ncnc(-c3ccccc3)n2)C[C@@H]1N1CCCCC1=O [Example 85, 1-[(3S,4S)-4-Amino-1-(4-phenyl-[1,3,5]triazin-2-yl)-pyrrolidin-3-yl]-piperidin-2-one hydrochloride]",59.1
9,"CCC[C@H](C)Oc1cc(N2C[C@H](N)[C@@H](N3CCCCC3=O)C2)ncn1 [Example 90, 1-((3S,4S)-4-Amino-1-(6-((S)-pentan-2-yloxy)pyrimidin-4-yl)pyrrolidin-3-yl)piperidin-2-onetrifluoroacetate]",1030

# Results, then the molecule that gave them:
row,IC50 [nM],Structure (SMILES)
1,640,"N[C@H]1CN(c2cc(N3CCc4ncsc4C3)ncn2)C[C@@H]1N1CCCC1=O [Example 62, 1-((3S,4S)-4-Amino-1-(6-(6,7-dihydrothiazolo[5,4-c]pyridin-5(4H)-yl)pyrimidin-4-yl)pyrrolidin-3-yl)pyrrolidin-2-onedihydrochloride]"
2,1990,"N[C@H]1CN(c2cc(N3CCc4cncnc4C3)ncn2)C[C@@H]1N1CCCC1=O [Example 63, 1-((3S,4S)-4-Amino-1-(6-(5,6-dihydropyrido[3,4-d]pyrimidin-7(8H)-yl)pyrimidin-4-yl)pyrrolidin-3-yl)pyrrolidin-2-onedihydrochloride]"
3,2480,"N[C@H]1CN(c2cc(N3CCc4nc[nH]c4C3)ncn2)C[C@@H]1N1CCCC1=O [Example 64, 1-((3S,4S)-4-Amino-1-(6-(6,7-dihydro-3H-imidazo[4,5-c]pyridin-5(4H)-yl)pyrimidin-4-yl)pyrrolidin-3-yl)pyrrolidin-2-onedihydrochloride]"
4,395,"N[C@H]1CN(c2cc(N3CCc4[nH]ncc4C3)ncn2)C[C@@H]1N1CCCC1=O [Example 66, 1-((3S,4S)-4-Amino-1-(6-(6,7-dihydro-1H-pyrazolo[4,3-c]pyridin-5(4H)-yl)pyrimidin-4-yl)pyrrolidin-3-yl)pyrrolidin-2-onedihydrochloride]"
5,141,"N[C@H]1CN(c2ncnc(N3CCS(=O)(=O)CC3)n2)C[C@@H]1N1CCCCC1=O [Example 68, 1-{(3S,4S)-4-Amino-1-[4-(1,1-dioxo-6-thiomorpholin-4-yl)-[1,3,5]triazin-2-yl]-pyrrolidin-3-yl}-piperidin-2-onetrifluoroacetate]"
6,1060,"N[C@H]1CN(c2cc(N3CCS(=O)(=O)CC3)ncn2)C[C@@H]1N1CCCC1=O [Example 69, 1-((3S,4S)-4-Amino-1-[6-(1,1-dioxo-6-thiomorpholin-4-yl)-pyrimidin-4-yl]-pyrrolidin-3-yl)pyrrolidin-2-onedihydrochloride]"
7,74.2,"N[C@H]1CN(c2cc(NC3CC3)ncn2)C[C@@H]1N1CCCCC1=O [Example 73, 1-[(3S,4S)-4-Amino-1-(6-cyclopropylamino-pyrimidin-4-yl)-pyrrolidin-3-yl]-piperidin-2-onedihydrochloride]"
8,1400,"N[C@H]1CN(c2cc(NC3CC3)ncn2)C[C@@H]1N1CCCC1=O [Example 74, 1-((3S,4S)-4-Amino-1-(6-cyclopropylamino-pyrimidin-4-yl)pyrrolidin-3-yl)pyrrolidin-2-onetrihydrochloride]"
9,23.7,"N[C@H]1CN(c2ncnc(N3CCc4nocc4C3)n2)C[C@@H]1N1CCCCC1=O [Example 76, 1-{(3S,4S)-4-Amino-1-[4-(6,7-dihydro-4H-isoxazolo[4,3-c]pyridine-5-yl)-[1,3,5]triazin-2-yl]-pyrrolidin-3-yl}-piperidin-2-one trifluoroacetate]"
10,39.4,"N[C@H]1CN(c2cc(N3CCc4nocc4C3)nc(C(F)(F)F)n2)C[C@@H]1N1CCCCC1=O [Example 78, 1-((3S,4S)-4-amino-1-(6-(6,7-dihydroisoxazolo[4,3-c]pyridin-5(4H)-yl)-2-(trifluoromethyl)pyrimidin-4-yl)pyrrolidin-3-yl)piperidin-2-one]"
11,61.7,"N[C@H]1CN(c2ncnc(N3CCc4nocc4C3)c2F)C[C@@H]1N1CCCCC1=O [Example 79, 1-((3S,4S)-4-amino-1-(6-(6,7-dihydroisoxazolo[4,3-c]pyridin-5(4H)-yl)-5-fluoropyrimidin-4-yl)pyrrolidin-3-yl)piperidin-2-one]"
12,33.9,"Cc1nc(-c2ccccc2)cc(N2C[C@H](N)[C@@H](N3CC(F)(F)CCC3=O)C2)n1 [Example 83, 1-((3S,4S)-4-amino-1-(2-methyl-6-phenylpyrimidin-4-yl)pyrrolidin-3-yl)-5,5-difluoropiperidin-2-one]"
13,38.7,"N[C@H]1CN(c2ncnc(-c3ccccc3)n2)C[C@@H]1N1CC(F)(F)CCC1=O [Example 84, 1-((3S,4S)-4-amino-1-(4-phenyl-1,3,5-triazin-2-yl)pyrrolidin-3-yl)-5,5-difluoropiperidin-2-one trifluoroacetate]"
14,55.3,"COc1ccc(-c2cc(N3C[C@H](N)[C@@H](N4CCCCC4=O)C3)ncn2)cc1 [Example 86, 1-{(3S,4S)-4-Amino-1-[6-(4-methoxy-phenyl)-pyrimidin-4-yl]-pyrrolidin-3-yl}-piperidin-2-one hydrochloride]"
15,38.6,"COc1ccc(-c2cc(N3C[C@H](N)[C@@H](N4CCCCC4=O)C3)ncn2)cn1 [Example 87, 1-{(3S,4S)-4-Amino-1-[6-(6-methoxy-pyridin-3-yl)-pyrimidin-4-yl]pyrrolidin-3-yl}-piperidin-2-one dihydrochloride]"
16,314,"N[C@H]1CN(c2cc(Oc3cccc(F)c3)ncn2)C[C@@H]1N1CCCCC1=O [Example 88, 1-((3S,4S)-4-amino-1-(6-(3-fluorophenoxy)pyrimidin-4-yl)pyrrolidin-3-yl)piperidin-2-one]"
17,318,"CCCOc1cc(N2C[C@H](N)[C@@H](N3CCCCC3=O)C2)ncn1 [Example 89, 1-((3S,4S)-4-Amino-1-(6-propoxypyrimidin-4-yl)pyrrolidin-3-yl)piperidin-2-one trifluoroacetate]"
